Test in all cases: binding to AX14596 beads (HeLa lysate, SILAC MS)
Test [1] concerns the target T1, BRK (PTK6) (Homo sapiens, UniProt Q13882).
T1 construct: endogenous in cells; host or cells: HeLa S3
On the procedure: (§1) Differentially SILAC-encoded cell lysates were either incubated with the inhibitor beads displaying immobilized AX14596 or control resin devoid of ligand. In parallel, the supernatant from the first binding step was subjected to a second incubation with the AX14596 resin (FIG. 4). The resulting three elution fractions were combined, resolved by gel electrophoresis, proteolytically digested and the relative abundance of the retained proteins quantified. Proteins showing considerable binding to the control resin were identified as non-specific interactors and therefore not considered further. […] These target-specific ratios were similar in “label switch” experiments (FIGS. 6a and 6c). The binding equilibrium was determined in parallel control SILAC experiments as well as the excess of the immobilized compound over its cellular targets, the excess preferably being a molar excess (FIG. 7 and FIG. 8).
(§2) Cysteine carbamidomethylation was set as a fixed modification and N-acetyl protein and oxidized methionine were allowed as variable modifications. Spectra that were determined to result from heavy labeled peptides in the pre-search detection of SILAC partners by MaxQuant were searched with the fixed modifications Lys^4, Lys^8, Arg^6 and Arg^10, whereas MS/MS spectra for which no SILAC state could be assigned before database searching were searched with Lys^4, Lys^8, Arg^6 and Arg^10 as variable modifications. The mass tolerance was set to 5 ppm for monoisotopic precursor ions and to 0.5 Da for MS/MS peaks. The minimum peptide length was set to 6 amino acids and up to three missed cleavages and three isotopically labeled amino acids were permitted per peptide. The accepted false discovery rate (FDR) was 1% for the proteins and peptides. The cut-off for the posterior error probability (PEP) of peptides was set to 10%. Peptide PEPs were determined by generating Mascot score and peptide-length-dependent histograms for both the forward and the reverse hits and then deriving the probability of a false identification for a given top-scoring peptide using Bayes' theorem. The PEPs of peptides belonging to the same proteins were then multiplied. Each peptide sequence was considered only once with the lowest PEP determined in case of multiple sequencing of the same isotopic pattern or of peptide species with different SILAC, charge or modification states. Proteins were then sorted according to their products of their peptide PEPs and included until a FDR of 1% was reached according to the fraction of reverse proteins contained in the protein list. In addition to the FDR threshold applied for protein identification, proteins were only included when they were identified with at least two peptides (of which one was required to be unique for the protein) and quantified if at least on quantifiable SILAC pair was associated with them. Outliers were not removed as protein ratios were calculated as the median instead of the average of all peptide ratios. For peptides shared among different identified proteins, SILAC ratios were only considered for the ratio of the protein identified with the highest number of unique peptides. Protein ratios for the different in vitro association experiments were corrected for the initial SILAC pooling ratio, which was determined from the median of protein ratios in pooled SILAC-encoded cell extracts.

The target in test [2] is T2, GAK (Homo sapiens, UniProt O14976).
T2 sequence (O14976 1-1311): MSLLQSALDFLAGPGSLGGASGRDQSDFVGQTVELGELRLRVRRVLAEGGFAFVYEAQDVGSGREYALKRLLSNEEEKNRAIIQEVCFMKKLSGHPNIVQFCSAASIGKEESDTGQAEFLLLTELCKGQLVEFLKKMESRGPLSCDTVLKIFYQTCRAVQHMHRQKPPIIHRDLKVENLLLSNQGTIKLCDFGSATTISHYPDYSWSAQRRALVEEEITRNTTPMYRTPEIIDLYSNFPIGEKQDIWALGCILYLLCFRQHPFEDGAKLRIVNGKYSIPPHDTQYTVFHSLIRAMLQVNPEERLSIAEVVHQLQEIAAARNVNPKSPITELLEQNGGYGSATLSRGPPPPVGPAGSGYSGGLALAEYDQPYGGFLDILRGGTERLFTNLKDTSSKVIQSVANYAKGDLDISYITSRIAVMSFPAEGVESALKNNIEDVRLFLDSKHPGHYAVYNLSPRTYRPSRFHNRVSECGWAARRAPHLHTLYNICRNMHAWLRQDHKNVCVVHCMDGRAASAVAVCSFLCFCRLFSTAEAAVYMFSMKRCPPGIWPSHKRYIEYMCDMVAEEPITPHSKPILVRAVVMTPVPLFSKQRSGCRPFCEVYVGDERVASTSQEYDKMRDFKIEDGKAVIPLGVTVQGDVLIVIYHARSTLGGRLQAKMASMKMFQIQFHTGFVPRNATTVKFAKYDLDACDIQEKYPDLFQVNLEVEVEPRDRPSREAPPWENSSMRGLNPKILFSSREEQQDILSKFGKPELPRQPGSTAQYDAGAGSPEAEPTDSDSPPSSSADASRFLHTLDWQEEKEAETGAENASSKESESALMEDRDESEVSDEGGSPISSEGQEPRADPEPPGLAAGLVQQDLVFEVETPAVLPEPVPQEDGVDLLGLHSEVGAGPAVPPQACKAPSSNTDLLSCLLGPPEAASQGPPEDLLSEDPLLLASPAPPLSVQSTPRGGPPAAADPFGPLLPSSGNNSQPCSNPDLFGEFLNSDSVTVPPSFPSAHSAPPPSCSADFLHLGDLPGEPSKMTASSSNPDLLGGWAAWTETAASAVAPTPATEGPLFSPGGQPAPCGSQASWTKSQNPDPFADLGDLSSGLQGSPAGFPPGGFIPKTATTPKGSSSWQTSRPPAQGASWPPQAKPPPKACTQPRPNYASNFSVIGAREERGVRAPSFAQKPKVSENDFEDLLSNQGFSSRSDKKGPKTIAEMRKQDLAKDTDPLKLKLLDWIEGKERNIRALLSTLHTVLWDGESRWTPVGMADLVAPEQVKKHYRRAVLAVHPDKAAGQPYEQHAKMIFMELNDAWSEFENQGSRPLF
On the procedure:
as §1, §2

Test [3] concerns the target RIPK2 (Homo sapiens, UniProt O43353). On the procedure: as §1, §2

The record followed here is patent US8959984B2, “Proteome-wide quantification of small molecule binding to cellular target proteins” (priority 2007, dated 2015).

Values joined by “and” are separate entries in the source; they are usually repeats but may differ in a detail not shown here. Identical values can stand only once.

One may read the Ki as the equilibrium dissociation constant of an inhibitor or competing ligand from its target.

Sequence of RIPK2 (O43353 whole entry): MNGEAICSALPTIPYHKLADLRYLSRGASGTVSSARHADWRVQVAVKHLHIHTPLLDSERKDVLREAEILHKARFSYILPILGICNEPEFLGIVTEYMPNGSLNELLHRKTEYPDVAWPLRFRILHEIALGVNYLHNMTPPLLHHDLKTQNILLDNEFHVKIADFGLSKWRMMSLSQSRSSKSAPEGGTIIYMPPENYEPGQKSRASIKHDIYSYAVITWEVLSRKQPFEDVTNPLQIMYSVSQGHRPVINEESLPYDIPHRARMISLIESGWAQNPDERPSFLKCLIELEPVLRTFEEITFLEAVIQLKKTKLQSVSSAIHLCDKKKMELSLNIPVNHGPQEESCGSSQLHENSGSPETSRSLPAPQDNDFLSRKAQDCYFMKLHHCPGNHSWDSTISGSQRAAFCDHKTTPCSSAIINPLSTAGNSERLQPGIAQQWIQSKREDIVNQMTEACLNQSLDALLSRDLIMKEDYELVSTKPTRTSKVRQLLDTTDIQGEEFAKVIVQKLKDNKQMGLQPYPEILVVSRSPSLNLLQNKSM
T1 sequence (Q13882 whole entry): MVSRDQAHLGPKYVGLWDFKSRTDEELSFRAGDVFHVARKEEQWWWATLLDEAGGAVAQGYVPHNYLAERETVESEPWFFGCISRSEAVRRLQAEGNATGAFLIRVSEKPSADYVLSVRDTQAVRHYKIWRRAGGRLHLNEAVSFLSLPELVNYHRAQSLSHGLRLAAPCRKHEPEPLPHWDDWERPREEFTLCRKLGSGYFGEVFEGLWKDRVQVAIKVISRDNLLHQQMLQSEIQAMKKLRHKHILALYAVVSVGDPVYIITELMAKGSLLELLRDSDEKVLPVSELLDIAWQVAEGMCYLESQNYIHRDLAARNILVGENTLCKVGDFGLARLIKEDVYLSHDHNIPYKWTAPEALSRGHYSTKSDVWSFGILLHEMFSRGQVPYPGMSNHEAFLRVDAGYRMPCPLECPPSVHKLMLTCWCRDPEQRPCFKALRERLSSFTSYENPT

On to `COc1cc2ncnc(Nc3ccc(F)c(Cl)c3)c2cc1OCCCN` [AX14596], for which, in test [1], the Ki was 45 µM and 45.4 µM; the “r (3 mg/1 mg lysate)” value worked out at 2.56; the “r (5 h/2.5 h inc. time)” value was 0.96; the “rAVERAGE (2. inc/1. inc)” value amounted to 0.31. In test [1], the “rAVERAGE (control/1. inc)” value was found to be 0.02. Further, in test [1] (bound to AX14596 beads), the “% BOUND” value worked out at 69%. Besides, in test [2], the Ki is 82 µM and 82.1 µM; the “r (3 mg/1 mg lysate)” value was determined as 2.59; the “r (5 h/2.5 h inc. time)” value amounted to 1.05; the “rAVERAGE (2. inc/1. inc)” value was 0.45. In addition, the “rAVERAGE (control/1. inc)” value in test [2] turned out to be 0.04. In addition, in test [2] (bound to AX14596 beads), the “% BOUND” value is 55%. Besides, in test [3], the Ki is 6.2 µM and 6.19 µM; the “r (3 mg/1 mg lysate)” value was 2.68; the “r (5 h/2.5 h inc. time)” value was found to be 0.90; the “rAVERAGE (2. inc/1. inc)” value is 0.06. The “rAVERAGE (control/1. inc)” value in test [3] amounted to 0.02. Also, the “% BOUND” value in test [3] (bound to AX14596 beads) came out at 94%.
